Test results: patent US9458195B2, “Melanocortin receptor ligands” (Ipsen Pharma S.A.S., priority 2005, dated 2016)
Bridges are numbered along the chain shown (N, C = ends). [ ]: non-standard residue; d: D form. Pen = CC(C)(S)[C@H](N)C(=O)O; Nle = CCCC[C@H](N)C(=O)O; GABA = NCCCC(=O)O

What was measured:
[1] = molecular target: T1, hMC4-R (Homo sapiens, UniProt P32245); assay: cyclic AMP bioassay (ECL), CHO-K1 cells expressing hMC4-R; type: cell-based; settings: Table 3B, cAMP
T1 construct: expressed in transfected cells; host or cells: CHO-K1 (membranes)
T1 sequence (P32245 whole entry): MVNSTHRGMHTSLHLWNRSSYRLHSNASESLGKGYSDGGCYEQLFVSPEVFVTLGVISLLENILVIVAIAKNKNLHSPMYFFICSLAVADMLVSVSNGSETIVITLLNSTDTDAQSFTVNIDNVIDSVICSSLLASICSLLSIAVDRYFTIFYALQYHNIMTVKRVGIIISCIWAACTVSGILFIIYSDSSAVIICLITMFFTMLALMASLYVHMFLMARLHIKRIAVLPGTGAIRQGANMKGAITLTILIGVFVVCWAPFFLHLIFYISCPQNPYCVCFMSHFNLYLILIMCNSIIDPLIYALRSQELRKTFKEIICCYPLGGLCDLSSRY
Description: (§4) Intracellular cyclic AMP (cAMP) levels were determined by an electrochemiluminescence (ECL) assay (Meso Scale Discovery®, Gaithersburg, Md.; referred to hereinafter as MSD). […] Transgenic CHO-K1 cells stably expressing hMC receptor subtypes 1, 3, 4 or 5 were dispensed at a density of approximately 7,000 cells/well in 384-well Multi-Array® plates (MSD) containing integrated carbon electrodes and coated with anti-cAMP antibody. Increasing concentrations of the test compounds were added and the cells were incubated for approximately 40 minutes at approximately 37° C. […] At the end of the second incubation period read buffer (Tris-buffered solution containing an ECL co-reactant and Triton X-100 at ph 7.8) was added and the cAMP levels in the cell lysates were immediately determined by ECL detection with a Sector Imager 6000 Reader® (MSD). Data were analyzed using a computer-assisted non-linear regression analysis (XL fit; IDBS) and reported as either an EC50 value or a Kb value.

[2] = molecular target: T2, hMC5-R (Homo sapiens, UniProt P33032); assay: cyclic AMP bioassay (ECL), CHO-K1 cells expressing hMC5-R; type: cell-based; settings: Table 3B, cAMP
T2 construct: expressed in transfected cells; host or cells: CHO-K1 (membranes)
T2 sequence (P33032 whole entry): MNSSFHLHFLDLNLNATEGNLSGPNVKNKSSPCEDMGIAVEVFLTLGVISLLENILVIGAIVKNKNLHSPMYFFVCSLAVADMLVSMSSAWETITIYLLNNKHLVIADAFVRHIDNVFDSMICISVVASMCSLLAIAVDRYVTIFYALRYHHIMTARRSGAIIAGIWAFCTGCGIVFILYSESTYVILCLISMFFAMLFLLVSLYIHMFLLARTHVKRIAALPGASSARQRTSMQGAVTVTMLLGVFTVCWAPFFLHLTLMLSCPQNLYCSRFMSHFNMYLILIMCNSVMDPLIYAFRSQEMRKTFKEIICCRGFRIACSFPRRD
Description: as §4

[3] = molecular target: T3, hMC1-R (Homo sapiens, UniProt Q01726); assay: cyclic AMP bioassay (ECL), CHO-K1 cells expressing hMC1-R; type: cell-based; settings: Table 3B, cAMP
T3 construct: expressed in transfected cells; host or cells: CHO-K1 (membranes)
T3 sequence (Q01726 whole entry): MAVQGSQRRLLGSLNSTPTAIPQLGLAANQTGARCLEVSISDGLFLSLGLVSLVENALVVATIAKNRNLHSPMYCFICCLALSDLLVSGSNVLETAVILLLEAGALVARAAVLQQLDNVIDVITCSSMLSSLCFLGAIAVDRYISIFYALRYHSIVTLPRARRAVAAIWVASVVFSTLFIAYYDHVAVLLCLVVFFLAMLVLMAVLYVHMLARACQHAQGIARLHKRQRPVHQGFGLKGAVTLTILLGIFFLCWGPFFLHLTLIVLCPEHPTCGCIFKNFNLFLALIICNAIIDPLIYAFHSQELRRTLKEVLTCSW
Description: as §4

[4] = molecular target: T2, hMC5-R; assay: Radioligand binding assay, [125I]-NDP-α-MSH competition, hMC5-R; settings: CHO-K1 cell membranes
Description: (§1) Radioligand Binding Assays
(§2) Cellular membranes used for the in vitro receptor binding assays were obtained from transgenic CHO-K1 cells stably expressing hMC-R receptor subtypes 1, 3, 4 or 5. […] The pellets were resuspended in the same buffer and centrifuged at 50,000 g for 10 minutes at approximately 4° C. The washed pellets containing the cellular membranes were stored at approximately −80° C.
(§3) Filters were washed three times with 50 mM Tris-HCl at pH 7.4 at a temperature of approximately 0-4° C. and then assayed for radioactivity using a Packard Topcount® scintillation counter. Binding data were analyzed by computer-assisted non-linear regression analysis (XL fit; IDBS).

[5] = molecular target: T1, hMC4-R; assay: Radioligand binding assay, [125I]-NDP-α-MSH competition, hMC4-R; settings: CHO-K1 cell membranes
Description: as §1, §2, §3

[6] = molecular target: T4, hMC3-R (Homo sapiens, UniProt P41968); assay: cyclic AMP bioassay (ECL), CHO-K1 cells expressing hMC3-R; type: cell-based; settings: Table 3B, cAMP
T4 construct: expressed in transfected cells; host or cells: CHO-K1 (membranes)
T4 sequence (P41968 whole entry): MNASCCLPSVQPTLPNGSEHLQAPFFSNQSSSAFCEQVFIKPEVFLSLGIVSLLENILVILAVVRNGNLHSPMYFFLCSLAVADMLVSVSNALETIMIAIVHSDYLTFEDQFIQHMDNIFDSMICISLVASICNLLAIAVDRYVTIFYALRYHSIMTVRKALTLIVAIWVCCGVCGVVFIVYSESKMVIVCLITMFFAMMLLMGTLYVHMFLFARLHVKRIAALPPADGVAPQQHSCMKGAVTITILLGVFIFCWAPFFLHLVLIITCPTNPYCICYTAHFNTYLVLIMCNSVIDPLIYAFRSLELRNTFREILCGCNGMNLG
Description: as §4

[7] = molecular target: T3, hMC1-R; assay: Radioligand binding assay, [125I]-NDP-α-MSH competition, hMC1-R; settings: CHO-K1 cell membranes
Description: as §1, §2, §3

[8] = molecular target: T4, hMC3-R; assay: Radioligand binding assay, [125I]-NDP-α-MSH competition, hMC3-R; settings: CHO-K1 cell membranes
Description: as §1, §2, §3

EC50 [1]: 0.028 nM
EC50 [2]: 3.9 nM
EC50 [3]: 0.28 nM
Ki [4]: 0.42 nM
Ki [5]: 0.43 nM
EC50 [6]: 0.24 nM
Ki [7]: 0.12 nM
Ki [8]: 10 nM
Substance: Ac-[Nle]CH[dF]RW[GABA][Pen]-NH2 (disulfide 2-8)
